Here are results for one molecule from article PMC3077598 (The Journal of Biological Chemistry, 2011).

The structures appear in SMILES notation.

Assay [1] concerns the target TASK-1 (Homo sapiens, UniProt O14649, T199A). As to the kind of experiment: two-electrode voltage clamp, Xenopus oocytes. Format: cell-based. Conditions: read-out: % inhibition at 400 nM. (In general: Two-electrode voltage clamp holds a large cell at a set potential and records current.)
In assay [2] the target is TASK-1 (Homo sapiens, UniProt O14649, T93A). Description: two-electrode voltage clamp, Xenopus oocytes. Conditions: read-out: % inhibition at 400 nM. The format is cell-based.
TASK-1 (Homo sapiens, UniProt O14649, T93A), sequence (O14649 whole entry T93A): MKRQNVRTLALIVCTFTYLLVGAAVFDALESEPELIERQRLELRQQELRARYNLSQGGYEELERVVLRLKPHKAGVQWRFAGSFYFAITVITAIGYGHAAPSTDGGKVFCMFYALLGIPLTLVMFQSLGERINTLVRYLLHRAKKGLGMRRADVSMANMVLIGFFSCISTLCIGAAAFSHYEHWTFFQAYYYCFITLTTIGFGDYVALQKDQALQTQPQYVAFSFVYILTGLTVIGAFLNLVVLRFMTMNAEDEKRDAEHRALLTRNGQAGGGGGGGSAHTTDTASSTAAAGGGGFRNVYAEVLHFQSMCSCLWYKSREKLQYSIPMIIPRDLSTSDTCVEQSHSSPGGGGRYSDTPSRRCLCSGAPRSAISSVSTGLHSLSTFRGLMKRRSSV

TASK-1 (Homo sapiens, UniProt O14649, T199A), sequence (O14649 whole entry T199A): as the sequence (O14649 whole entry T93A) above, with A93T, T199A counted along it

With `COc1ccc(CC(=O)NCc2ccccc2-c2ccccc2C(=O)NCc2ccc(F)cc2F)cc1` [A1899], the values for the inhibition at 0.4 µM in assay [1] and in assay [2] were 36.4 ± 6.4% and 26.4 ± 6.4%, respectively.
